The results in this text go back to paper PMC7948796, “Mammalian-like type II glutaminyl cyclases in Porphyromonas gingivalis and other oral pathogenic bacteria as targets for treatment of periodontitis” (The Journal of Biological Chemistry, 2021).

Broadly, the Ki is a dissociation constant, usually derived from enzyme kinetics or from competition with a known ligand. The term MIC denotes the lowest concentration found to suppress growth. The low end stands for a more susceptible organism, the high end for a less susceptible organism.

In brackets after ≈: the same amount, converted by molar mass. Entries after “also recorded” stand apart in the source; their conditions may differ.

The target of one assay is HsQC (Homo sapiens, UniProt Q16769). Nature of the assay: QC inhibition assay with fluorogenic substrate H-Gln-AMC (Ki). The settings on record: read-out: Ki value for HsQC. Type of assay: biochemical.
In assay [1] the test system is Porpyhromonas gingivalis ATCC 33277. Nature of the assay: MIC, micro-broth dilution. Type of assay: cell-based, Porphyromonas gingivalis. On the procedure: (§1) The micro-broth dilution technique was used to determine MICs. After subcultivation of bacterial strains and checking of purity, a defined inoculum was added to Wilkins–Chalgren broth (Oxoid) supplemented with 10 μg/ml β-NAD (Sigma-Aldrich) containing the inhibitor. A twofold dilution series was made, starting from 2 mM (final concentration) of the inhibitor. The growth control contained 10% of the inhibitor dissolvent at 2 mM (0.01% DMSO in a buffer with 50 mM TRIS, pH 8, and 50 mM NaCl). After an incubation period of 42 h (18 h for the aerobic S. gordonii), the growth of microbes was analyzed by visual analysis of the turbidity. MIC represents the lowest concentration without visible turbidity. All experiments were made using independent replicates.
(In general: Broth dilution looks for growth in wells or tubes with falling amounts of substance.)

Assay [2] has as its system Porpyhromonas gingivalis J374–1 (clinical isolate). Description: MIC, micro-broth dilution. It is filed as cell-based, Porphyromonas gingivalis. On the procedure: as §1
Assay [3] concerns Porpyhromonas gingivalis M5-1-2 (clinical isolate). Nature of the assay: MIC, micro-broth dilution. It is filed as cell-based, Porphyromonas gingivalis. As for the experimental part: as §1
Assay [4] deals with Fusobacterium nucleatum ATCC 25586. Description: MIC, micro-broth dilution. It is filed as cell-based. On the procedure: as §1
Assay [5] deals with Prevotella intermedia ATCC 25611. Description: MIC, micro-broth dilution. It is filed as cell-based. As for the experimental part: as §1
The subject of assay [6] is Streptococcus gordonii ATCC 10558. Nature of the assay: MIC, micro-broth dilution. It is filed as cell-based. As for the experimental part: as §1
In assay [7] the test system is Tannerella forsythia ATCC 43037. Nature of the assay: MIC, micro-broth dilution. It is filed as cell-based. On the procedure: as §1
A further assay relates to P. gingivalis ATCC 33277. Description: Growth curves, OD at 600 nm. It is filed as cell-based, Porphyromonas gingivalis. The settings on record: laboratory strain ATCC 33277, Fig. 6A. As for the experimental part:
(§2) In addition, we monitored the growth of two P. gingivalis strains ([…] and J374-1) by measuring the OD at 600 nm at different time points (it was not possible to make continuous measurements due to the anaerobic growth conditions of P. gingivalis), with the OD600 being recorded at 0 h, 16 h, 20 h, 24 h, and 42 h.

The next assay concerns P. gingivalis J374-1. Nature of the assay: Growth curves, OD at 600 nm. Type of assay: cell-based, Porphyromonas gingivalis. The settings on record: clinical isolate J374-1, Fig. 6B. On the procedure: as §2
For the next assay, the target named is PgQC (Porphyromonas gingivalis, UniProt Q7MT37). Nature of the assay: QC inhibition assay with fluorogenic substrate H-Gln-AMC (Ki). It is filed as biochemical. Details: His-tag (pET28a, thrombin-cleavable) (N, cleaved yes); made in house; host or cells: E. coli Rosetta(DE3)pLysS. The settings on record: Ki value for PgQC. On the procedure:
Inhibitory constants were determined using concentrations of H-Gln-AMC varying from 1/4 KM to 2 KM and a final concentration of bacterial QC in a range between 25 nM and 50 nM. Progress curves were fitted to the general equation for competitive inhibition.

Chain of HsQC (Q16769 29-361): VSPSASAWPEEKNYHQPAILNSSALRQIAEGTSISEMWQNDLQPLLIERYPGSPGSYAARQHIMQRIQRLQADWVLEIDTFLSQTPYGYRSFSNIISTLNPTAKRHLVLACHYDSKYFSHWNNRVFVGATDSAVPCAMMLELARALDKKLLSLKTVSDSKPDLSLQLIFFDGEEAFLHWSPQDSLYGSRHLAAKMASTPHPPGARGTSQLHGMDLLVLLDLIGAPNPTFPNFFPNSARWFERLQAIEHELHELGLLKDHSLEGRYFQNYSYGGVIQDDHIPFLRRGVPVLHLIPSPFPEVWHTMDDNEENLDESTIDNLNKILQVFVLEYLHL
Chain of PgQC (Q7MT37 entry or part of it): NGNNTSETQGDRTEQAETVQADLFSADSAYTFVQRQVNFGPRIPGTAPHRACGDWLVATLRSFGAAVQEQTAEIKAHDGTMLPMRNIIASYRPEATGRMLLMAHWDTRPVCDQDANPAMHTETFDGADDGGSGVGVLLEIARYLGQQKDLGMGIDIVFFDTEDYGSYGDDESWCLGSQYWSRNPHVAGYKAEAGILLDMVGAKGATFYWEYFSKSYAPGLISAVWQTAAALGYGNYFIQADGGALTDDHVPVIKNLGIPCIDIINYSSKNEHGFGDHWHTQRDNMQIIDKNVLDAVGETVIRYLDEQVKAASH

For `Clc1ccc(CNc2cnc3nc[nH]c3c2)cc1` [S-316, N-(4-chlorobenzyl)imidazo[4,5-b]pyridin-6-amine], the Ki amounted to 0.655 ± 0.027 µM on HsQC and 0.053 ± 0.0011 µM at PgQC. Moreover, the MIC in words result in [1] (P. gingivalis laboratory strain), in assay [2] (P. gingivalis clinical isolate), in [3] (P. gingivalis clinical isolate), in assay [5] (P. intermedia) and in assay [7] (T. forsythia) was “submillimolar” throughout. Moreover, the MIC in [1] (Porphyromonas gingivalis, ATCC33277, P. gingivalis ATCC 33277, 42 h) was 500 µM (≈ 129 µg/mL); in [2] (Porphyromonas gingivalis, P. gingivalis J374–1 clinical isolate, 42 h) it was 500 µM (≈ 129 µg/mL); in assay [3] (Porphyromonas gingivalis, P. gingivalis M5-1-2 clinical isolate, 42 h) it was 250 µM (≈ 64.7 µg/mL); in assay [4] (Fusobacterium nucleatum, ATCC25586, F. nucleatum ATCC 25586, 42 h), > 2000 µM; in assay [5] (Prevotella intermedia, ATCC25611, P. intermedia ATCC 25611, 42 h), 125 µM (≈ 32.3 µg/mL); in assay [6] (Streptococcus gordonii, ATCC10558, S. gordonii ATCC 10558, 18 h), > 2000 µM. For the same molecule, it took 500 µM (≈ 129 µg/mL) to inhibit growth in assay [7] (Tannerella forsythia, ATCC43037, T. forsythia ATCC 43037, 42 h) (MIC). Also, the Growth attenuation entry is “did not result in growth attenuation” in [4] (Gram-negative F. nucleatum, no QC-like enzyme) and “did not result in growth attenuation” in assay [6] (Gram-positive S. gordonii, no QC-like enzyme). Also, the “P. gingivalis growth inhibition, dependence on concentration” value in the assay on P. gingivalis ATCC 33277 and in the assay with P. gingivalis J374-1 was “dose-dependent; also recorded: concentration-dependent manner” in each case.
